In US20140248254A1, “THE USE OF ACHE AS NUCLEASE” (priority 2011, published 2014):

Molecular target: T1, DNase activity of AChE (Homo AChE protein) (Homo sapiens, UniProt P22303)
T1 construct: AChE 1-547AA corresponding to human; AChE1-548AA corresponding to mouse; made in house
Test: Effect of metal cations and chelators on DNase activity of Homo AChE
Assay type: biochemical
Settings: 2.5 mM CaCl2, 5 mM MgCl2, 0.5 mM EGTA, 0.5 mM EDTA; 6 h
Procedure: A. In the presence of 2.5 mM CaCl2, 5 mM MgCl2, 0.5 mM EGTA, 0.5 mM EDTA or the combination thereof, plasmid DNA (pEGFP-C1 plasmid) was incubated with Homo AChE protein for 6 h.
Purified plasmid DNA was used as substrate for detection. In the experiment of cleaving of plasmid DNA, 0.15 μg of plasmid DNA with a transfection-grade purity (pEGFP-C1 plasmid, Clotech) was added to 10 μl buffer system containing (5.0 mM Tris-HCl, PH 7.5; 2.5 mM CaCl2; 5.0 mM MgCl2). 1 μg (or an amount indicated in Examples) of purified AChE proteins of human or mouse origin (AChE 1-547AA corresponding to human; AChE1-548AA corresponding to mouse) was further added, and incubated in 37° C. Sampling at 6 h (or timepoints indicated in Examples).

T1 sequence (P22303 32-578): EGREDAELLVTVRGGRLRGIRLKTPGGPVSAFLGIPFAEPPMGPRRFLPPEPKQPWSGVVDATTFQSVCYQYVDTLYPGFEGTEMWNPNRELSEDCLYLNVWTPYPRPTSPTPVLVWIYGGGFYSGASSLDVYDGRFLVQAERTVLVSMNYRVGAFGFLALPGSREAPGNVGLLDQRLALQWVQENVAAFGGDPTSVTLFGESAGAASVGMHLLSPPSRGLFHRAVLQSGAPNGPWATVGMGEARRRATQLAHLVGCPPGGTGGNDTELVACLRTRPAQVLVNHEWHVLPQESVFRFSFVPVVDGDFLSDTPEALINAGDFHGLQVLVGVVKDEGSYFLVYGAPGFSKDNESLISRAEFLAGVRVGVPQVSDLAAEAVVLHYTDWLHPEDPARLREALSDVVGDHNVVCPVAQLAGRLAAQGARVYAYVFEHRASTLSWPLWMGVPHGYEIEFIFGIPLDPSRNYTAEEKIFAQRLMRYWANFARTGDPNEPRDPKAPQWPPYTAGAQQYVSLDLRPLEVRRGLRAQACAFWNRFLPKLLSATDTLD

Row | SMILES | effect on activity of AChE cleaving DNA
1 | O=C(O)CN(CCOCCOCCN(CC(=O)O)CC(=O)O)CC(=O)O [EGTA] | not obvious
2 | O=C(O)CN(CCN(CC(=O)O)CC(=O)O)CC(=O)O [EDTA] | significantly inhibited
